Laboratory results taken from patent US8759051B2, “Control of contaminant microorganisms in fermentation processes with peroxygen-releasing compounds” (E I du Pont de Nemours and Company, priority 2010, dated 2014).
Values joined by “and” are separate entries in the source; they are usually repeats but may differ in a detail not shown here. Equal values may be shown once.

Test: Stability of peroxygen-releasing compounds during storage at 40° C., iodometric titration of hydrogen peroxide (Example 4)
Type: physicochemical
Method: A dry oven was used to store samples of the peroxygen-releasing compounds at 40° C. The oven was allowed to equilibrate overnight. Two-gram duplicate samples of each of the following peroxygen-releasing compounds were dispensed into aluminum weighing dishes: sodium percarbonate (Alfa Aesar, Ward Hill, Mass.), sodium percarbonate FB 400 (Solvay Chemicals, Inc., Houston, Tex.), sodium percarbonate FB […] (Solvay Chemicals, Inc.), calcium peroxide (Sigma-Aldrich Co., St. […] After six days, samples were analyzed for levels of hydrogen peroxide using standard iodometric titration.

O=C([O-])[O-].O=C([O-])[O-].OO.OO.OO.[Na+].[Na+].[Na+].[Na+] [Sodium percarbonate, sodium percarbonate]
% Remaining H2O2 Day 0: 100% | % Remaining H2O2 Day 6: 99% | % Remaining H2O2 Day 14: 99% | % H2O2 Day 0 (before storage, duplicate samples, listed as Sodium percarbonate (Alfa Aesar)): 27.48% and 27.38% | % H2O2 Day 6 (storage at 40° C. in dry oven, day 6, duplicate samples, listed as Sodium percarbonate (Alfa Aesar)): 27.12% and 27.05% | % H2O2 Day 14 (storage at 40° C. in dry oven, day 14, duplicate samples, listed as Sodium percarbonate (Alfa Aesar)): 27.11% and 26.99%
